Ends that are not written are not given here.
Columns and labels:
CRF2R = molecular target: T1, CRF2R (Homo sapiens, UniProt Q13324); assay: CRF2R agonist activation (EC50 / Emax), called comparative CRF binding; format: cell-based; conditions: read-out: CRF2R Emax
T1 sequence (Q13324 1-411): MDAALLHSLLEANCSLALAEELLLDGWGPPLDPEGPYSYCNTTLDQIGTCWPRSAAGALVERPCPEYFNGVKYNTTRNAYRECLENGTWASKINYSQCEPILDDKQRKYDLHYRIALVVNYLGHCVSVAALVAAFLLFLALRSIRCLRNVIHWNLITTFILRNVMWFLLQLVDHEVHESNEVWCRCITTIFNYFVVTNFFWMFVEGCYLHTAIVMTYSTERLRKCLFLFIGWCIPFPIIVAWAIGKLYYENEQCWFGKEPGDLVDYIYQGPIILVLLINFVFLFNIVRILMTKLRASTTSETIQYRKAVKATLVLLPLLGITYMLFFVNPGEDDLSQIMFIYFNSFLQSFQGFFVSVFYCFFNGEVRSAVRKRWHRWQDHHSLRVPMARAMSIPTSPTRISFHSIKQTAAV
Outline: (§1)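 CRFR-expressing cells + peptide vs vehicle; read-out cAMP (lysate assay) or CRE-linked reporter expression (luciferase, CAT, fluorescent protein, alkaline phosphatase, etc.). Signal compared against vehicle-treated cells.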

CRF1R = molecular target: T2, CRF1R (Homo sapiens, UniProt P34998); assay: CRF1R agonist activation (EC50 / Emax), called comparative CRF binding; format: cell-based; conditions: read-out: CRF1R Emax
T2 sequence (P34998 24-415): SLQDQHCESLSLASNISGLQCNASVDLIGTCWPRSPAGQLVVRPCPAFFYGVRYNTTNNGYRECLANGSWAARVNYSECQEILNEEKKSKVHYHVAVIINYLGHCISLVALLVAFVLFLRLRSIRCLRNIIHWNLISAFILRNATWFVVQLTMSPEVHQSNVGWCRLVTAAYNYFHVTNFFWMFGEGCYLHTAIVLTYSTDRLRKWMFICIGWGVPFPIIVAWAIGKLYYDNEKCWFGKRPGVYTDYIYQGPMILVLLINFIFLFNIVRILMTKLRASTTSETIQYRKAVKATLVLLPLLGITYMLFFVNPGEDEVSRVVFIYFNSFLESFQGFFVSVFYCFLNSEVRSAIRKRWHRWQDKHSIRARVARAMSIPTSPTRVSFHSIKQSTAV
Outline: as §1

Substance | Emax (CRF2R) [%] | Emax (CRF1R) [%]
SQEPPISLDLPTGLLREVLEMTKADQLAQQAHSNRKLLDIA-NH2 [compound 98] | 5.5 | 4
SQEPPISLDLPTHLLREVLEMTKADQLAQQAHSNRKLLDIA-NH2 [compound 99] | 4.35 | 4.35
SQEPPISLDLPTQLLREVLEMTKADQLAQQAHSNRKLLDIA-NH2 [compound 105] | 9.15 | 5.2
SQEPPISLDLPTYLLREVLEMTKADQLAQQAHSNRKLLDIA-NH2 [compound 106] | 6.1 | 4.8
SQEPPISLDLTFGLLREVLEMTKADQLAQQAHSNRKLLDIA-NH2 [compound 88] | 12.6 | 11.2
SQEPPISLDLTFHLLREVLEQARARAAREQATTNARILARV-NH2 [compound 157] | 60.6 | 91
SQEPPISLDLTIGLLREVLEMTKADQLAQQAHSNRKLLDIA-NH2 [compound 86] | 8.1 | 4.6
SQEPPISLDLTIHLLREVLEMTKADQLAQQAHSNRKLLDIA-NH2 [compound 87] | 14.7 | 5.3
